Experimental findings from US8119635B2, “Diazabicyclic central nervous system active agents” (Abbott Laboratories, priority 2000, dated 2012) are described below.

Counter-ions that a name gives are not always drawn.

The term Ki denotes a measure of affinity in units of concentration, obtained from inhibition or displacement.

In one test the target is T1, neuronal nicotinic acetylcholine receptors (Rattus norvegicus, UniProt P09483+P12390).
T1 construct: crude synaptic membrane preparations from whole rat brain; from tissue; host or cells: whole rat brain, crude synaptic membranes
T1 sequence (P09483 31-630): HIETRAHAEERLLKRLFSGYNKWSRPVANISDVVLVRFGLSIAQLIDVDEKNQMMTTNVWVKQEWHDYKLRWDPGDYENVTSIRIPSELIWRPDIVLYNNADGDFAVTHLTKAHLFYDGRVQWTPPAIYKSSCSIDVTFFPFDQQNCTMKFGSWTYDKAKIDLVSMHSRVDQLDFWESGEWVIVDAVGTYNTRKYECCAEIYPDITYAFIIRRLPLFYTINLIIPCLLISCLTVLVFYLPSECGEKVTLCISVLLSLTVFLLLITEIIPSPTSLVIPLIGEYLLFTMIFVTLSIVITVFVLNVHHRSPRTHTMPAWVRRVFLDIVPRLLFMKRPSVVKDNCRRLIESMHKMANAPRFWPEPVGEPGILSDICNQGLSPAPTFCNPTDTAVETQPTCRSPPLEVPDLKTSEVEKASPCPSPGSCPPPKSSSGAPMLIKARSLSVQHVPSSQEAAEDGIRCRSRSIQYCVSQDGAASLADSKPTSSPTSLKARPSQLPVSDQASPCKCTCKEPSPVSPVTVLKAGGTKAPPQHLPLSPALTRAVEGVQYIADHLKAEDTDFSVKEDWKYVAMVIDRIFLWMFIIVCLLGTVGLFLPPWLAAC
T1 sequence (P12390 25-500): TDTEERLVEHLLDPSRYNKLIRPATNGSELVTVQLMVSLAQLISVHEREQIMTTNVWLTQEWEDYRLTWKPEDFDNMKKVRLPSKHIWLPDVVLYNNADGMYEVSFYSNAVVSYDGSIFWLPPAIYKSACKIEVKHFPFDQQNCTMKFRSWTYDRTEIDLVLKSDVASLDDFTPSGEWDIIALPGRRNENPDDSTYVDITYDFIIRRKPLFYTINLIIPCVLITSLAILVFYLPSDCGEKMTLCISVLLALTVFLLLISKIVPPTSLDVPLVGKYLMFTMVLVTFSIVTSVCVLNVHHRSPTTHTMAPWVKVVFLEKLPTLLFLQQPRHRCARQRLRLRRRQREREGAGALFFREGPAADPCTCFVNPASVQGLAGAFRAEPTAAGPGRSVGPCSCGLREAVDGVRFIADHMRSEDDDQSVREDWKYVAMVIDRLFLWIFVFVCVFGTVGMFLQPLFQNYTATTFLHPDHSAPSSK
The experiment in a line: Binding of [3H]-cytisine to neuronal nicotinic acetylcholine receptors, crude synaptic membranes from whole rat brain.
Settings: not given
Here is the method: The In Vitro protocols for determination of nicotinic acetylcholine channel receptor binding potencies of ligands were determined as follows.
Washed membranes were stored at −80° C. prior to use. Frozen aliquots were slowly thawed and resuspended in 20 volumes of buffer (containing: 120 mM NaCl, 5 mM KCl, 2 mM MgCl2, 2 mM CaCl2 and 50 mM Tris-Cl, pH 7.4 @[…]). After centrifuging at 20,000×g for 15 minutes, the pellets were resuspended in 30 volumes of buffer.
The test compounds were dissolved in water to make 10 mM stock solutions. Each solution was then diluted (1:100) with buffer (as above) and further taken through seven serial log dilutions to produce test solutions from 10^−5 to 10^−11 M.
Samples were incubated for 60 minutes at 4° C., then rapidly filtered through Whatman GF/B filters presoaked in 0.5% polyethyleneimine using 3×4 mL of ice-cold buffer. The filters are counted in 4 mL of Ecolume® (ICN). Nonspecific binding was determined in the presence of 10 μM (−)-nicotine and values were expressed as a percentage of total binding. IC50 values were determined with the RS-1 (BBN) nonlinear least squares curve-fitting program and IC50 values were converted to Ki values using the Cheng and Prusoff correction (Ki=IC50/(1+[ligand]/Kd of ligand).
Regarding `CN1C[C@H]2CCN(c3ccc(Cl)nc3)[C@H]2C1` (relative stereo) [Example 17, cis-1-(6-chloro-3-pyridinyl)-5-methyloctahydropyrrolo[3,4-b]pyrrole hydrochloride], the Ki came out at 31 nM. Take `c1cncc(N2CC[C@@H]3CNC[C@@H]32)c1` [Example 75, (3aR,6aR)-1-(3-pyridinyl)octahydropyrrolo[3,4-b]pyrrole fumarate]: the affinity, expressed as Ki, was 6.9 nM. The same measure, in the same setting: the same measure for `c1cncc(N2CC[C@@H]3CCN[C@@H]3C2)c1` (relative stereo) [Example 39, (cis)-6-(3-pyridinyl)octahydro-1H-pyrrolo[2,3-c]pyridine dihydrochloride]: 0.54 nM. Take `Clc1ccc(N2CC[C@H]3CN[C@H]3C2)cn1` (relative stereo) [Example 42, (cis)-3-(6-chloro-3-pyridinyl)-3,8-diazabicyclo[4.2.0]octane bis(4-methylbenzenesulfonate)]: the Ki is 0.03 nM. On the same count and under the same terms, as for `Clc1ccc(N2CC[C@@H]3CNC[C@@H]32)cn1` [Example 73, (3aR,6aR)-1-(6-chloro-3-pyridinyl)octahydropyrrolo[3,4-b]pyrrole fumarate], the figure is 24 nM; as for `N#Cc1cncc(N2C[C@H]3CN[C@H]3C2)c1` [Example 79, 5-[(1R,5R)-3,6-diazabicyclo[3.2.0]hept-3-yl]nicotinonitrile fumarate], 0.12 nM; as for `Oc1cncc(N2C[C@H]3CNC[C@H]3C2)c1` [Example 6, cis-2-(5-hydroxy-3-pyridinyl)octahydropyrrolo[3,4-c]pyrrole dihydrochloride], 0.75 nM. On the same count and under the same terms, as for `Clc1ccc(N2CC[C@H]3CNC[C@H]32)cn1` [Example 77, (3aS,6aS)-1-(6-chloro-3-pyridinyl)octahydropyrrolo[3,4-b]pyrrole fumarate], the figure is 19 nM; as for `COc1cc(N2C[C@H]3CNC[C@H]32)cnc1Br` [Example 95, (1R,5S)-6-(6-bromo-5-methoxy-3-pyridinyl)-3,6-diazabicyclo[3.2.0]heptane 4-methylbenzenesulfonate], 0.12 nM. On the same count and under the same terms, as for `Clc1ccc(N2CC[C@H]3CN[C@H]3C2)cn1` [Example 49, (1R,6S)-3-(6-chloro-3-pyridinyl)-3,8-diazabicyclo[4.2.0]octane fumarate], the figure is 0.02 nM; as for `c1cncc(N2CC[C@H]3CNC[C@H]32)c1` [Example 78, (3aS,6aS)-1-(3-pyridinyl)octahydropyrrolo[3,4-b]pyrrole dihydrochloride], 25 nM; as for `Brc1cncc(N2C[C@@H]3CCN[C@@H]3C2)c1` [Example 31, (3aS,6aS)-5-(5-bromo-3-pyridinyl)octahydropyrrolo[3,4-b]pyrrole 4-methylbenzenesulfonate], 14 nM. In turn, `Clc1ccc(N2C[C@H]3CN[C@H]3C2)cn1` [Example 80, (1R,5R)-3-(6-chloro-3-pyridinyl)-3,6-diazabicyclo[3.2.0]heptane fumarate] registered a Ki of 0.17 nM. On the same count and under the same terms, the same measure for `N#Cc1cncc(N2CC[C@H]3CNC[C@H]32)c1` [Example 83, 5-((3aS,6aS)-hexahydropyrrolo[3,4-b]pyrrol-1(2H)-yl)nicotinonitrile fumarate]: 97 nM; for `Clc1ccc(N2C[C@H]3CNC[C@H]32)cn1` [Example 57, (1R,5S)-6-(6-chloro-3-pyridinyl)-3,6-diazabicyclo[3.2.0]heptane fumarate]: 1.2 nM. Regarding `N#CCc1cc(N2C[C@H]3CCN[C@H]3C2)cnc1Br` [Example 66, [5-((3aR,6aR)-hexahydropyrrolo[3,4-b]pyrrol-5(1H)-yl)-2-bromo-3-pyridinyl]acetonitrile fumarate], the Ki is 0.26 nM. Same read-out and setting: as for `Clc1ccc(N2C[C@H]3CNC[C@H]32)cn1` (relative stereo) [Example 46, (cis)-6-(6-chloro-3-pyridinyl)-3,6-diazabicyclo[3.2.0]heptane fumarate], the figure is 0.73 nM; as for `[N-]=[N+]=Nc1cncc(N2C[C@H]3CNC[C@H]32)c1` [Example 96, (1R,5S)-6-(5-azido-3-pyridinyl)-3,6-diazabicyclo[3.2.0]heptane fumarate], 1.9 nM. Still for that read-out and setting: as for `Cc1cc(N2C[C@@H]3CCNC[C@@H]32)cnc1Cl` [Example 90, (1R,6S)-8-(6-chloro-5-methyl-3-pyridinyl)-3,8-diazabicyclo[4.2.0]octane fumarate], the figure is 0.04 nM; as for `COc1cncc(N2C[C@@H]3CCN[C@@H]3C2)c1` [Example 32, (3aS,6aS)-5-(5-methoxy-3-pyridinyl)octahydropyrrolo[3,4-b]pyrrole 4-methylbenzenesulfonate], 5.3 nM. The compound `N#Cc1cncc(N2CC[C@@H]3CNC[C@@H]32)c1` [Example 81, 5-((3aR,6aR)-hexahydropyrrolo[3,4-b]pyrrol-1(2H)-yl)nicotinonitrile] showed a Ki of 11 nM. In turn, `CN1C[C@@H]2CN(c3ccc(Cl)nc3)C[C@@H]2C1` [Example 4, cis-2-(6-chloro-3-pyridinyl)-5-methyloctahydropyrrolo[3,4-c]pyrrole dihydrochloride] showed a Ki of 36 nM.

Turning to `Clc1cc(N2C[C@@H]3CCN[C@@H]3C2)cnc1Cl` [Example 25, (3aS,6aS)-5-(5,6-dichloro-3-pyridinyl)octahydropyrrolo[3,4-b]pyrrole hydrochloride], the affinity, expressed as Ki, was 1.4 nM.

`Clc1cc(N2C[C@H]3CCN[C@H]3C2)cnc1Br` [Example 59, (3aR,6aR)-5-(6-bromo-5-chloro-3-pyridinyl)octahydropyrrolo[3,4-b]pyrrole fumarate] returned a Ki of 0.35 nM.

The same test, now with this note: [3H]-CYT 1.25 nM, whole rat brain membranes, 60 minutes at 4° C.; IC50 converted to Ki by Cheng and Prusoff correction; read-out: Average Ki.
Consider `c1cncc(N2CC[C@H]3NC[C@H]32)c1` [Example 18, (1R,5R)-2-(3-pyridinyl)-2,6-diazabicyclo[3.2.0]heptane bis(4-methylbenzenesulfonate)], for which the Ki stood at 154 nM.

Turning to `Clc1cc(N2C[C@@H]3CCNC[C@@H]32)cnc1Cl` [Example 94, (1R,6S)-8-(5,6-dichloro-3-pyridinyl)-3,8-diazabicyclo[4.2.0]octane 4-methylbenzenesulfonate], the Ki is 0.12 nM. On the same count and under the same terms, the same measure for `c1cncc(N2C[C@@H]3CCNC[C@@H]32)c1` [Example 92, (1R,6S)-8-(3-pyridinyl)-3,8-diazabicyclo[4.2.0]octane 4-methylbenzenesulfonate]: 0.12 nM. The same measure, in the same setting: as for `c1cncc(N2C[C@@H]3CCN[C@@H]3C2)c1` [Example 30, (3aS,6aS)-5-(3-pyridinyl)octahydropyrrolo[3,4-b]pyrrole 4-methylbenzenesulfonate], the figure is 2.9 nM; as for `Cc1cc(N2C[C@H]3CCNC[C@H]32)cnc1Cl` [Example 89, (1S,6R)-8-(6-chloro-5-methyl-3-pyridinyl)-3,8-diazabicyclo[4.2.0]octane fumarate], 0.24 nM; as for `c1cncc(N2C[C@H]3NCC[C@H]32)c1` [Example 20, (1R,5R)-6-(3-pyridinyl)-2,6-diazabicyclo[3.2.0]heptane bis(4-methylbenzenesulfonate)], 122 nM. Still for that read-out and setting: the same measure for `COc1cncc(N2C[C@H]3CCNC[C@H]32)c1` [Example 88, (1S,6R)-8-(5-methoxy-3-pyridinyl)-3,8-diazabicyclo[4.2.0]octane fumarate]: 0.56 nM; for `Clc1cc(N2C[C@H]3CCNC[C@H]32)cnc1Cl` [Example 93, (1S,6R)-8-(5,6-dichloro-3-pyridinyl)-3,8-diazabicyclo[4.2.0]octane 4-methylbenzenesulfonate]: 0.3 nM.
